System: HCT-116
Experiment: Cytotoxicity against human HCT116 cells overexpressing GST-Pi assessed as inhibition of cell viability at 10 uM after 48 hrs by MTT assay relative to control
Assay type: functional
Conditions: HCT-116, 48 h

SMILES | inhibition at 10 µM [%]
COc1ccc(/C=C/C(=O)c2cccc(Oc3cc(O/N=[N+](\[O-])N4CCOCC4)c([N+](=O)[O-])cc3[N+](=O)[O-])c2)cc1 | 68.7
CC(=O)N1N=C(c2cccc(Oc3cc(O/N=[N+](\[O-])N4CCCCC4)c([N+](=O)[O-])cc3[N+](=O)[O-])c2)CC1c1ccc(C)cc1 (stereo not drawn) | 75.9
CCCCCCOc1ccc(/C=C/C(=O)c2cccc(Oc3cc(O/N=[N+](\[O-])N4CCOCC4)c([N+](=O)[O-])cc3[N+](=O)[O-])c2)cc1OC | 52.4
COc1ccc(/C=C/C(=O)c2cccc(Oc3cc(O/N=[N+](\[O-])N4CCOCC4)c([N+](=O)[O-])cc3[N+](=O)[O-])c2)cc1OC | 75.6
CCCCOc1ccc(/C=C/C(=O)c2cccc(Oc3cc(O/N=[N+](\[O-])N4CCCCC4)c([N+](=O)[O-])cc3[N+](=O)[O-])c2)cc1OC | 58.6
CCCCCOc1ccc(/C=C/C(=O)c2cccc(Oc3cc(O/N=[N+](\[O-])N4CCOCC4)c([N+](=O)[O-])cc3[N+](=O)[O-])c2)cc1OC | 66.6

System: not listed separately
Experiment: Selectivity ratio of IC50 for human A549 cells to IC50 for human MDA-MB-231 cells
Assay type: functional
Conditions: not given

SMILES | Ratio IC50
COc1ccc(/C=C/C(=O)c2cccc(Oc3cc(O/N=[N+](\[O-])N4CCOCC4)c([N+](=O)[O-])cc3[N+](=O)[O-])c2)cc1 | 1.1
CC(=O)N1N=C(c2cccc(Oc3cc(O/N=[N+](\[O-])N4CCCCC4)c([N+](=O)[O-])cc3[N+](=O)[O-])c2)CC1c1ccc(C)cc1 (stereo not drawn) | 1.6
COc1ccc(/C=C/C(=O)c2cccc(Oc3cc(O/N=[N+](\[O-])N4CCOCC4)c([N+](=O)[O-])cc3[N+](=O)[O-])c2)cc1OC | 1

System: MDA-MB-231
Experiment: Antiproliferative activity against human MDA-MB-231 cells after 48 hrs by MTT assay relative to control
Assay type: functional, cell-based
Conditions: MDA-MB-231, 48 h

SMILES | IC50 [µM]
COc1ccc(/C=C/C(=O)c2cccc(Oc3cc(O/N=[N+](\[O-])N4CCOCC4)c([N+](=O)[O-])cc3[N+](=O)[O-])c2)cc1 | 5.34
CC(=O)N1N=C(c2cccc(Oc3cc(O/N=[N+](\[O-])N4CCCCC4)c([N+](=O)[O-])cc3[N+](=O)[O-])c2)CC1c1ccc(C)cc1 (stereo not drawn) | 4.57
COc1ccc(/C=C/C(=O)c2cccc(Oc3cc(O/N=[N+](\[O-])N4CCOCC4)c([N+](=O)[O-])cc3[N+](=O)[O-])c2)cc1OC | 6.1

System: MCF7
Experiment: Cytotoxicity against ADR-sensitive human MCF7 cells assessed as inhibition of cell viability after 48 hrs by MTT assay
Assay type: cell-based
Conditions: MCF7, 48 h

SMILES | IC50 [µM]
COc1ccc(/C=C/C(=O)c2cccc(Oc3cc(O/N=[N+](\[O-])N4CCOCC4)c([N+](=O)[O-])cc3[N+](=O)[O-])c2)cc1 | 29.9
CC(=O)N1N=C(c2cccc(Oc3cc(O/N=[N+](\[O-])N4CCCCC4)c([N+](=O)[O-])cc3[N+](=O)[O-])c2)CC1c1ccc(C)cc1 (stereo not drawn) | 22.8
COc1ccc(/C=C/C(=O)c2cccc(Oc3cc(O/N=[N+](\[O-])N4CCOCC4)c([N+](=O)[O-])cc3[N+](=O)[O-])c2)cc1OC | 28.3

Organism: Homo sapiens
Experiment: Inhibition of MDR in human MCF7/ADR cells assessed as potentiation of adriamycin-induced antiproliferative activity by measuring fold reduction in adriamycin IC50 at 10 uM after 48 hrs by MTT assay
Assay type: cell-based
Conditions: not given

SMILES | fold change (FC)
COc1ccc(/C=C/C(=O)c2cccc(Oc3cc(O/N=[N+](\[O-])N4CCOCC4)c([N+](=O)[O-])cc3[N+](=O)[O-])c2)cc1 | 64.2
CC(=O)N1N=C(c2cccc(Oc3cc(O/N=[N+](\[O-])N4CCCCC4)c([N+](=O)[O-])cc3[N+](=O)[O-])c2)CC1c1ccc(C)cc1 (stereo not drawn) | 18
COc1ccc(/C=C/C(=O)c2cccc(Oc3cc(O/N=[N+](\[O-])N4CCOCC4)c([N+](=O)[O-])cc3[N+](=O)[O-])c2)cc1OC | 66.3

System: MCF-10A
Experiment: Antiproliferative activity against human MCF10A cells after 48 hrs by MTT assay relative to control
Assay type: cell-based
Conditions: not given

SMILES | IC50 [µM]
COc1ccc(/C=C/C(=O)c2cccc(Oc3cc(O/N=[N+](\[O-])N4CCOCC4)c([N+](=O)[O-])cc3[N+](=O)[O-])c2)cc1 | 16.6
CC(=O)N1N=C(c2cccc(Oc3cc(O/N=[N+](\[O-])N4CCCCC4)c([N+](=O)[O-])cc3[N+](=O)[O-])c2)CC1c1ccc(C)cc1 (stereo not drawn) | 70.9
COc1ccc(/C=C/C(=O)c2cccc(Oc3cc(O/N=[N+](\[O-])N4CCOCC4)c([N+](=O)[O-])cc3[N+](=O)[O-])c2)cc1OC | 62.1

Target: T1, Glutathione S-transferase P (Homo sapiens, UniProt P09211)
Experiment: Prodrug activation in human HCT116 cells assessed as GST-Pi-mediated NO release at 5 uM after 24 hrs by nitrate reductase assay
Assay type: cell-based
Conditions: not given

T1 sequence (P09211 whole entry): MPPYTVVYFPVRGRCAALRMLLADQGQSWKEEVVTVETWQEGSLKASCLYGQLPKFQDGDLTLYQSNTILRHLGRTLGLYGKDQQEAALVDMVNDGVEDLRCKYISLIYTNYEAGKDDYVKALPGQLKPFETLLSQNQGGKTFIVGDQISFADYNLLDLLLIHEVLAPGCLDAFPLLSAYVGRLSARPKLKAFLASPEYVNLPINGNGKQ

SMILES | Drug metabolism
CC(=O)N1N=C(c2cccc(Oc3cc(O/N=[N+](\[O-])N4CCCCC4)c([N+](=O)[O-])cc3[N+](=O)[O-])c2)CC1c1ccc(C)cc1 (stereo not drawn) | Metabolite_Detected
COc1ccc(/C=C/C(=O)c2cccc(Oc3cc(O/N=[N+](\[O-])N4CCOCC4)c([N+](=O)[O-])cc3[N+](=O)[O-])c2)cc1OC | Metabolite_Detected

System: U2OS
Experiment: Antiproliferative activity against human U2OS cells after 48 hrs by MTT assay relative to control
Assay type: functional, cell-based
Conditions: not given

SMILES | IC50 [µM]
COc1ccc(/C=C/C(=O)c2cccc(Oc3cc(O/N=[N+](\[O-])N4CCOCC4)c([N+](=O)[O-])cc3[N+](=O)[O-])c2)cc1 | 5.19
CC(=O)N1N=C(c2cccc(Oc3cc(O/N=[N+](\[O-])N4CCCCC4)c([N+](=O)[O-])cc3[N+](=O)[O-])c2)CC1c1ccc(C)cc1 (stereo not drawn) | 9.43
COc1ccc(/C=C/C(=O)c2cccc(Oc3cc(O/N=[N+](\[O-])N4CCOCC4)c([N+](=O)[O-])cc3[N+](=O)[O-])c2)cc1OC | 5.77

System: HCT-116
Experiment: Antiproliferative activity against human HCT116 cells after 48 hrs by MTT assay relative to control
Assay type: functional, cell-based
Conditions: HCT-116, 48 h

SMILES | IC50 [µM]
COc1ccc(/C=C/C(=O)c2cccc(Oc3cc(O/N=[N+](\[O-])N4CCOCC4)c([N+](=O)[O-])cc3[N+](=O)[O-])c2)cc1 | 4.91
CC(=O)N1N=C(c2cccc(Oc3cc(O/N=[N+](\[O-])N4CCCCC4)c([N+](=O)[O-])cc3[N+](=O)[O-])c2)CC1c1ccc(C)cc1 (stereo not drawn) | 1.3
COc1ccc(/C=C/C(=O)c2cccc(Oc3cc(O/N=[N+](\[O-])N4CCOCC4)c([N+](=O)[O-])cc3[N+](=O)[O-])c2)cc1OC | 4.59

System: not listed separately
Experiment: Selectivity ratio of IC50 for human MCF10A cells to IC50 for human MDA-MB-231 cells
Assay type: toxicity
Conditions: MCF10A cells versus MDA-MB-231 cells, read-out: Ratio IC50

SMILES | selectivity ratio
COc1ccc(/C=C/C(=O)c2cccc(Oc3cc(O/N=[N+](\[O-])N4CCOCC4)c([N+](=O)[O-])cc3[N+](=O)[O-])c2)cc1 | 3.1
CC(=O)N1N=C(c2cccc(Oc3cc(O/N=[N+](\[O-])N4CCCCC4)c([N+](=O)[O-])cc3[N+](=O)[O-])c2)CC1c1ccc(C)cc1 (stereo not drawn) | 15.5
COc1ccc(/C=C/C(=O)c2cccc(Oc3cc(O/N=[N+](\[O-])N4CCOCC4)c([N+](=O)[O-])cc3[N+](=O)[O-])c2)cc1OC | 10.2

System: not listed separately
Experiment: Selectivity ratio of IC50 for human U2OS cells to IC50 for human MDA-MB-231 cells
Assay type: functional
Conditions: not given

SMILES | Ratio IC50
COc1ccc(/C=C/C(=O)c2cccc(Oc3cc(O/N=[N+](\[O-])N4CCOCC4)c([N+](=O)[O-])cc3[N+](=O)[O-])c2)cc1 | 1
CC(=O)N1N=C(c2cccc(Oc3cc(O/N=[N+](\[O-])N4CCCCC4)c([N+](=O)[O-])cc3[N+](=O)[O-])c2)CC1c1ccc(C)cc1 (stereo not drawn) | 2.1
COc1ccc(/C=C/C(=O)c2cccc(Oc3cc(O/N=[N+](\[O-])N4CCOCC4)c([N+](=O)[O-])cc3[N+](=O)[O-])c2)cc1OC | 0.9

Target: T1, Glutathione S-transferase P
Experiment: Prodrug activation in human HCT116 cells assessed as GST-Pi-mediated NO release at 5 uM after 24 hrs in presence of GST-Pi inhibitor etacrynic acid by nitrate reductase assay
Assay type: cell-based
Conditions: not given

SMILES | Drug metabolism
CC(=O)N1N=C(c2cccc(Oc3cc(O/N=[N+](\[O-])N4CCCCC4)c([N+](=O)[O-])cc3[N+](=O)[O-])c2)CC1c1ccc(C)cc1 (stereo not drawn) | Metabolite_Notdetected
COc1ccc(/C=C/C(=O)c2cccc(Oc3cc(O/N=[N+](\[O-])N4CCOCC4)c([N+](=O)[O-])cc3[N+](=O)[O-])c2)cc1OC | Metabolite_Notdetected

System: not listed separately
Experiment: Cytotoxicity against ADR-sensitive human MCF7 cells assessed as inhibition of cell viability at 10 uM after 48 hrs by MTT assay relative to control
Assay type: cell-based
Conditions: read-out: INH

SMILES | cytotoxicity at 48 h, 10 µM [%]
COc1ccc(/C=C/C(=O)c2cccc(Oc3cc(O/N=[N+](\[O-])N4CCOCC4)c([N+](=O)[O-])cc3[N+](=O)[O-])c2)cc1 | 5.4
CC(=O)N1N=C(c2cccc(Oc3cc(O/N=[N+](\[O-])N4CCCCC4)c([N+](=O)[O-])cc3[N+](=O)[O-])c2)CC1c1ccc(C)cc1 (stereo not drawn) | 5.16
COc1ccc(/C=C/C(=O)c2cccc(Oc3cc(O/N=[N+](\[O-])N4CCOCC4)c([N+](=O)[O-])cc3[N+](=O)[O-])c2)cc1OC | 18

System: not listed separately
Experiment: Selectivity ratio of IC50 for human HCT116 cells to IC50 for human MDA-MB-231 cells
Assay type: functional
Conditions: not given

SMILES | Ratio IC50
COc1ccc(/C=C/C(=O)c2cccc(Oc3cc(O/N=[N+](\[O-])N4CCOCC4)c([N+](=O)[O-])cc3[N+](=O)[O-])c2)cc1 | 0.9
CC(=O)N1N=C(c2cccc(Oc3cc(O/N=[N+](\[O-])N4CCCCC4)c([N+](=O)[O-])cc3[N+](=O)[O-])c2)CC1c1ccc(C)cc1 (stereo not drawn) | 0.3
COc1ccc(/C=C/C(=O)c2cccc(Oc3cc(O/N=[N+](\[O-])N4CCOCC4)c([N+](=O)[O-])cc3[N+](=O)[O-])c2)cc1OC | 0.7

System: A549
Experiment: Antiproliferative activity against human A549 cells after 48 hrs by MTT assay relative to control
Assay type: functional, cell-based
Conditions: A549, 48 h

SMILES | IC50 [µM]
COc1ccc(/C=C/C(=O)c2cccc(Oc3cc(O/N=[N+](\[O-])N4CCOCC4)c([N+](=O)[O-])cc3[N+](=O)[O-])c2)cc1 | 5.9
CC(=O)N1N=C(c2cccc(Oc3cc(O/N=[N+](\[O-])N4CCCCC4)c([N+](=O)[O-])cc3[N+](=O)[O-])c2)CC1c1ccc(C)cc1 (stereo not drawn) | 7.31
COc1ccc(/C=C/C(=O)c2cccc(Oc3cc(O/N=[N+](\[O-])N4CCOCC4)c([N+](=O)[O-])cc3[N+](=O)[O-])c2)cc1OC | 5.99

Target: T1, Glutathione S-transferase P
Experiment: Prodrug activation in human HCT116 cells assessed as GST-Pi-mediated NO release at 5 uM after 24 hrs in presence of NO scavenger carboxy-PTIO by nitrate reductase assay
Assay type: cell-based
Conditions: not given

SMILES | Drug metabolism
CC(=O)N1N=C(c2cccc(Oc3cc(O/N=[N+](\[O-])N4CCCCC4)c([N+](=O)[O-])cc3[N+](=O)[O-])c2)CC1c1ccc(C)cc1 (stereo not drawn) | Metabolite_Notdetected
COc1ccc(/C=C/C(=O)c2cccc(Oc3cc(O/N=[N+](\[O-])N4CCOCC4)c([N+](=O)[O-])cc3[N+](=O)[O-])c2)cc1OC | Metabolite_Notdetected

From ChEMBL document CHEMBL4138232, “O2-(2,4-dinitrophenyl)diazeniumdiolates derivatives: Design, synthesis, cytotoxic evaluation and reversing MDR in MCF-7/ADR cells” (Eur J Med Chem, 2018)
